Experimental data taken from US20260284189A1, “TREATMENT OF NON-SMALL CELL LUNG CANCER” (ASTRAZENECA AB, priority 2023, published 2026).

Assays:
[1] = system: resectable non-small cell lung cancer (R-NSCLC); assay: AEGEAN phase III: event-free survival (EFS) by blinded independent central review; type: in vivo, human
From the text: As used herein, the terms “event-free survival” or “EFS” refer to the time from randomization to the first of the following: a) local or distant recurrence as determined by BICR using RECIST 1.1 assessments; b) death due to any cause (event date is the date of death); c) PD that precludes surgery (event date is the date of this determination) or PD discovered and reported by the Investigator upon attempting surgery that prevents completion of surgery (event date is the date of the first attempt at surgery). Event-free survival can be analyzed using the log-rank test based on blinded independent central review (BICR) assessment using RECIST v1.1 and pathology review stratified by disease stage (Stage II versus Stage III) and by PD-L1 expression status (<1% versus >1%) on the mITT. The p-value can be obtained from the stratified log-rank test using the Efron (Hertz-Picciotto and Rockhill “Validity and efficiency of approximation methods for tied survival times in Cox regression.” Biometrics 1997; 53(3):1151-6.) approach for handling ties.
The AEGEAN (NCT03800134) study described herein is a phase III, double-blind, placebo-controlled, multi-center international study of assessed perioperative (i.e. neoadjuvant and adjuvant) durvalumab plus neoadjuvant chemotherapy for the treatment of patients with resectable stage II and stage III non-small cell lung cancer (R-NSCLC).
The study enrolled approximately 1300 patients and randomized approximately 800 eligible patients. Eligible patients had newly diagnosed, previously untreated, histologically or cytologically documented, resectable NSCLC (stage IIA to select [N2] stage IIIB according to the American Joint Committee on Cancer [AJCC] Cancer Staging Manual, version 8). Patients were randomized in a 1:1 ratio to receive either durvalumab plus a platinum-based chemotherapy before surgery followed by durvalumab post-surgery (Arm 1; a platinum-based chemotherapy plus durvalumab intravenously every three weeks (four cycles) before surgery, followed by durvalumab intravenously every four weeks (12 cycles)) or placebo plus a platinum-based chemotherapy before surgery followed by placebo post-surgery (Arm 2; a platinum-based chemotherapy plus placebo intravenously every three weeks (four cycles) before surgery, followed by placebo intravenously every four weeks (12 cycles)). Patients were also stratified by disease stage (Stage II versus Stage III) and by PD-L1 expression status (<1% versus ≥1%).
The two primary efficacy endpoints in this study were event-free survival (EFS; per blinded independent central review [BICR]) and pathological complete response (pCR; evaluated centrally). […]
Comparisons between the study arms were analyzed using stratified log-rank tests. […]

[2] = system: xenograft model; settings: via a T-cell dependent mechanism; cited from earlier work
[3] = mITT subgroup, durvalumab versus placebo, unstratified Cox model

Substance: Durvalumab: antibody that selectively binds PD-L1 and blocks binding of PD-L1 to PD-1 and CD80; arm given with platinum-based chemotherapy before surgery
- EFS stratified hazard ratio, durvalumab arm versus placebo arm ([1]; mITT N=740, BICR, first interim analysis, 31.9% maturity, data cut-off Nov. 10, 2022): 0.68
- EFS HR, planned neoadjuvant platinum agent carboplatin [1, 3]: 0.73
- EFS HR, planned neoadjuvant platinum agent cisplatin [1, 3]: 0.59
- median EFS ([1]; mITT, BICR, first interim analysis, 31.9% maturity): not reached
- tumor growth in a xenograft model [2]: inhibits tumor growth in a xenograft model
